Common to all, as to type: in vivo
Test [1] relates to Lolium perenne (LOLPE). As to the kind of experiment: Example B pre-emergence herbicidal test, LOLPE. The note with it: Lolium perenne, 312 h, rate 250 g/ha, evaluated after 13 days, 100=total damage to plant, 0=no damage to plant. The protocol:
(§1) Seeds of a variety of test species were sown in standard soil in pots. After cultivation for one day (pre-emergence) or after 8 days cultivation (post-emergence) under controlled conditions in a glasshouse (at 24/16° C., day/night; 14 hours light; 65% humidity), the plants were sprayed with an aqueous spray solution derived from the formulation of the technical active ingredient in acetone/water (50:50) solution containing 0.5% Tween 20 (polyoxyethelyene sorbitan monolaurate, CAS RN 9005-64-5). The test plants were then grown in a glasshouse under controlled conditions in a glasshouse (at 24/16° C., day/night; 14 hours light; 65% humidity) and watered twice daily. After 13 days for pre and post-emergence, the test was evaluated (100=total damage to plant; 0=no damage to plant). Lolium perenne (LOLPE), Alopecurus myosuroides (ALOMY), Echinochloa crus-galli (ECHCG), Avena fatua (AVEFA) Pre-Emergence Activity

The subject of test [2] is Alopecurus myosuroides (ALOMY). Briefly: Example B pre-emergence herbicidal test, ALOMY. The note with it: Alopecurus myosuroides, 312 h, rate 250 g/ha, evaluated after 13 days, 100=total damage to plant, 0=no damage to plant. The protocol: as §1
The subject of test [3] is Echinochloa crus-galli (ECHCG). As to the kind of experiment: Example B pre-emergence herbicidal test, ECHCG. The note with it: Echinochloa crus-galli, 312 h, rate 250 g/ha, evaluated after 13 days, 100=total damage to plant, 0=no damage to plant. The protocol: as §1
The test system of test [4] is Avena fatua (AVEFA). Briefly: Example B pre-emergence herbicidal test, AVEFA. As to conditions: Avena fatua, 312 h, rate 250 g/ha, evaluated after 13 days, 100=total damage to plant, 0=no damage to plant. As to the method:
as §1

Test [5] has as its system Lolium perenne (LOLPE). As to the kind of experiment: Example B post-emergence herbicidal test, LOLPE. As to conditions: Lolium perenne, 312 h, rate 250 g/ha, evaluated after 13 days, scale 0-100, read-out: Post-emergence activity LOLPE (100=total damage to plant; 0=no damage to plant). As to the method: as §1, with “Post-Emergence” for “Pre-Emergence”
In test [6] the test system is Alopecurus myosuroides (ALOMY). As to the kind of experiment: Example B post-emergence herbicidal test, ALOMY. As to conditions: Alopecurus myosuroides, 312 h, rate 250 g/ha, evaluated after 13 days, scale 0-100, read-out: Post-emergence activity ALOMY (100=total damage to plant; 0=no damage to plant). As to the method: as §1, with “Post-Emergence” for “Pre-Emergence”

Test [7] deals with Echinochloa crus-galli (ECHCG). As to the kind of experiment: Example B post-emergence herbicidal test, ECHCG. The note with it: Echinochloa crus-galli, 312 h, rate 250 g/ha, evaluated after 13 days, scale 0-100, read-out: Post-emergence activity ECHCG (100=total damage to plant; 0=no damage to plant). As to the method:
as §1, with “Post-Emergence” for “Pre-Emergence”

For test [8], the system named is Avena fatua (AVEFA). Briefly: Example B post-emergence herbicidal test, AVEFA. As to conditions: Avena fatua, 312 h, rate 250 g/ha, evaluated after 13 days, scale 0-100, read-out: Post-emergence activity AVEFA (100=total damage to plant; 0=no damage to plant). The protocol:
as §1, with “Post-Emergence” for “Pre-Emergence”

Structures are written as SMILES.

With `CCS(=O)(=O)OC1=C(c2c(C)cc(C)cc2C)C(=O)C(CC2CCOC2)C1` (stereo not drawn) [Compound P27], the pest or weed control at 250 g/ha came to 100% with Lolium perenne (LOLPE) [1]; 100% in test [2]; 80% in test [3]; 80% with Avena fatua (AVEFA) [4]; 100% in the test with Lolium perenne (LOLPE) [5]; 80% in test [6]. Moreover, the pest or weed control at 250 g/ha in test [7] turned out to be 90%; in the test with Avena fatua (AVEFA) [8] it was 80%.
Take `Cc1cc(C)c(C2=C(OS(=O)(=O)C3CC3)CC(CC3CCOC3)C2=O)c(C)c1` (stereo not drawn) [Compound P28]: the pest or weed control at 250 g/ha with Lolium perenne (LOLPE) [1] came out at 100%; in test [2], 70%; in test [3], 20%; in the test on Avena fatua (AVEFA) [4], 30%; with Lolium perenne (LOLPE) [5], 100%; in test [6], 70%. In addition, the pest or weed control at 250 g/ha in test [7] was 60%; in the test on Avena fatua (AVEFA) [8] it was 70%.
On to `Cc1cc(C)c(C2=C(OC(=O)N3CCCCC3)CC(CC3CCOC3)C2=O)c(C)c1` (stereo not drawn) [Compound P29], for which the pest or weed control at 250 g/ha in the test with Lolium perenne (LOLPE) [1] was 90%; in test [2], 50%; in test [3], 0%; with Avena fatua (AVEFA) [4], 20%; in the test on Lolium perenne (LOLPE) [5] it was 100%; in test [6] it was 80%. The figures for the pest or weed control at 250 g/ha (in test [7]; in the test with Avena fatua (AVEFA) [8]) were 30% and 70%, respectively.
As for `CCSC(=O)OC1=C(c2c(C)cc(C)cc2C)C(=O)C(CC2CCOC2)C1` (stereo not drawn) [Compound P30], the pest or weed control at 250 g/ha with Lolium perenne (LOLPE) [1] was found to be 100%; in test [2], 100%; in test [3], 80%; in the test with Avena fatua (AVEFA) [4], 90%; in the test on Lolium perenne (LOLPE) [5], 100%; in test [6] it was 100%. For the same compound, the pest or weed control at 250 g/ha in test [7] was determined as 90%; with Avena fatua (AVEFA) [8], 100%.
For `Cc1cc(C)c(C2=C(OC(=O)OC(C)C)CC(CC3CCOC3)C2=O)c(C)c1` (stereo not drawn) [Compound P31], the pest or weed control at 250 g/ha stood at 100% in the test with Lolium perenne (LOLPE) [1]; 100% in test [2]; 100% in test [3]; 90% with Avena fatua (AVEFA) [4]; 100% in the test on Lolium perenne (LOLPE) [5]; 90% in test [6]. The pest or weed control at 250 g/ha amounted to 100% in test [7] and 90% with Avena fatua (AVEFA) [8].
In the case of `Cc1cc(C)c(C2=C(OC(=O)C(C)(C)C)CC(CCC3CCOCC3)C2=O)c(C)c1` (stereo not drawn) [Compound P34], the pest or weed control at 250 g/ha in the test on Lolium perenne (LOLPE) [1] is 100%; in test [2] it was 90%; in test [3], 100%; in the test on Avena fatua (AVEFA) [4], 90%; in the test on Lolium perenne (LOLPE) [5], 100%; in test [6] it was 80%. The pest or weed control at 250 g/ha in test [7] turned out to be 60%; with Avena fatua (AVEFA) [8], 90%.
For the compound `Cc1cc(C)c(C2=C(OC(=O)C(C)(C)C)CC(CC3CCCOC3)C2=O)c(C)c1` (stereo not drawn) [Compound P37], the pest or weed control at 250 g/ha in the test with Lolium perenne (LOLPE) [1] is 100%; in test [2] it was 100%; in test [3] it was 70%; with Avena fatua (AVEFA) [4], 70%; in the test with Lolium perenne (LOLPE) [5], 90%; in test [6], 90%. Besides, the pest or weed control at 250 g/ha (in test [7]; in the test with Avena fatua (AVEFA) [8]) was 90% in each case.
For the compound `CC(=O)OC1=C(c2c(C)cc(C)cc2C)C(=O)/C(=C/C2CCN(C(C)=O)C2)C1` (stereo not drawn) [Compound P42], the pest or weed control at 250 g/ha in the test with Lolium perenne (LOLPE) [1] is 40%; in test [2], 30%; in test [3], 30%; with Avena fatua (AVEFA) [4] it was 0%; in the test with Lolium perenne (LOLPE) [5], 40%; in test [6], 60%. Moreover, the pest or weed control at 250 g/ha (in test [7]; with Avena fatua (AVEFA) [8]) was 70% each time.
As to `COC(=O)OC1=C(c2c(C)cc(C)cc2C)C(=O)C(CC2CCOCC2)C1` (stereo not drawn) [Compound P45], the pest or weed control at 250 g/ha (in the test with Lolium perenne (LOLPE) [1]; in test [2]; in test [3]; in the test on Avena fatua (AVEFA) [4]; with Lolium perenne (LOLPE) [5]; in test [6]) was 100% each time. Also, the pest or weed control at 250 g/ha in test [7] came to 90%; in the test with Avena fatua (AVEFA) [8], 100%.
With `Cc1cc(C)c(C2=C(OS(C)(=O)=O)C/C(=C\C3CCN(S(C)(=O)=O)C3)C2=O)c(C)c1` (stereo not drawn) [Compound P46], the pest or weed control at 250 g/ha in the test with Lolium perenne (LOLPE) [1] is 90%; in test [2], 70%; in test [3], 100%; in the test with Avena fatua (AVEFA) [4], 60%; in the test on Lolium perenne (LOLPE) [5], 80%; in test [6] it was 90%. For the same compound, the pest or weed control at 250 g/ha in test [7] was 70%; in the test with Avena fatua (AVEFA) [8], 90%.
`CCSC(=O)OC1=C(c2c(C)cc(C)cc2C)C(=O)/C(=C/C2CCN(C(=O)SCC)C2)C1` (stereo not drawn) [Compound P47]: the pest or weed control at 250 g/ha was 60% in the test with Lolium perenne (LOLPE) [1]; 30% in test [2]; 60% in test [3]; 50% in the test on Avena fatua (AVEFA) [4]; 60% in the test on Lolium perenne (LOLPE) [5]; 70% in test [6]. In addition, the pest or weed control at 250 g/ha was determined as 50% in test [7] and 60% in the test with Avena fatua (AVEFA) [8].
As for `Cc1cc(C)c(C2=C(OC(=O)c3ccccc3)C/C(=C\C3CCN(C(=O)c4ccccc4)C3)C2=O)c(C)c1` (stereo not drawn) [Compound P48], the pest or weed control at 250 g/ha came to 80% with Lolium perenne (LOLPE) [1]; 70% in test [2]; 40% in test [3]; 60% in the test with Avena fatua (AVEFA) [4]; 90% with Lolium perenne (LOLPE) [5]; 90% in test [6]. For the same compound, the pest or weed control at 250 g/ha in test [7] was 90%; in the test with Avena fatua (AVEFA) [8] it was 100%.
In the case of `Cc1cc(C)c(C2=C(OC(=O)C(C)(C)C)CC(CC3COCCO3)C2=O)c(C)c1` (stereo not drawn) [Compound P49], the pest or weed control at 250 g/ha in the test with Lolium perenne (LOLPE) [1] is 100%; in test [2], 80%; in test [3], 100%; in the test on Avena fatua (AVEFA) [4] it was 60%; in the test on Lolium perenne (LOLPE) [5], 100%; in test [6], 80%. Moreover, the pest or weed control at 250 g/ha turned out to be 100% in test [7] and 90% with Avena fatua (AVEFA) [8].
Consider `CON1CCC(CC2CC(OC(C)=O)=C(c3c(C)cc(C)cc3C)C2=O)CC1` (stereo not drawn) [Compound P50], for which the pest or weed control at 250 g/ha (in the test on Lolium perenne (LOLPE) [1]; in test [2]; in test [3]; in the test on Avena fatua (AVEFA) [4]; in the test on Lolium perenne (LOLPE) [5]; in test [6]) was 100% in each case. Moreover, the pest or weed control at 250 g/ha (in test [7]; with Avena fatua (AVEFA) [8]) was 100% throughout.
Regarding `CON1CCC(CC2CC(OC(=O)C(C)(C)C)=C(c3c(C)cc(C)cc3C)C2=O)CC1` (stereo not drawn) [Compound P51], the pest or weed control at 250 g/ha (with Lolium perenne (LOLPE) [1]; in test [2]; in test [3]; with Avena fatua (AVEFA) [4]; with Lolium perenne (LOLPE) [5]; in test [6]) was 100% in each case. Also, the pest or weed control at 250 g/ha (in test [7]; in the test on Avena fatua (AVEFA) [8]) was 100% throughout.

The record behind these values is US9096560B2, “5-heterocyclylalkyl-3-hydroxy-2-phenylcyclopent-2-enones as herbicides” (Syngenta Limited, priority 2008, dated 2015).
